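In this assay, cells in 96-well plates receive the compound at five concentrations for 48 hours. Endpoints are linearly interpolated between the surrounding concentrations. Abbreviation: GI50, concentration required for 50% inhibition of growth. Definition used: TGI = concentration required for complete inhibition of growth.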
Legend:
Test in all cases: growth of human tumour cells (NCI), 48 h; in the data active = GI50 below about 0.43 µM; inactive = the rest
[1] = tested on: 786-0 renal
[2] = tested on: A498 renal
[3] = tested on: A549 NSCLC
[4] = tested on: ACHN renal
[5] = tested on: BT-549 breast
[6] = tested on: CAKI-1 renal
[7] = tested on: CCRF-CEM leukemia
[8] = tested on: COLO 205 colon
[9] = tested on: DU-145 prostate
[10] = tested on: EKVX NSCLC
[11] = tested on: HCC-2998 colon
[12] = tested on: HCT-116 colon
[13] = tested on: HCT-15 colon
[14] = tested on: HL-60(TB) leukemia
[15] = tested on: HOP-62 NSCLC
[16] = tested on: HOP-92 NSCLC
[17] = tested on: HS 578T breast
[18] = tested on: HT29 colon
[19] = tested on: IGROV1 ovarian
[20] = tested on: K-562 leukemia
[21] = tested on: KM12 colon
[22] = tested on: LOX IMVI melanoma
[23] = tested on: M14 melanoma
[24] = tested on: MALME-3M melanoma
[25] = tested on: MCF7 breast
[26] = tested on: MDA-MB-231 breast
[27] = tested on: MDA-MB-435
[28] = tested on: MOLT-4 leukemia
[29] = tested on: NCI-H226 lung
[30] = tested on: NCI-H23 lung
[31] = tested on: NCI-H460 lung
[32] = tested on: NCI-H522 lung
[33] = tested on: NCI/ADR-RES ovarian
[34] = tested on: OVCAR-3 ovarian
[35] = tested on: OVCAR-4 ovarian
[36] = tested on: OVCAR-5 ovarian
[37] = tested on: OVCAR-8 ovarian
[38] = tested on: PC-3 prostate
[39] = tested on: RPMI-8226 leukemia
[40] = tested on: RXF 393 renal
[41] = tested on: SF-268 CNS
[42] = tested on: SF-295 CNS
[43] = tested on: SF-539 CNS
[44] = tested on: SK-MEL-2 melanoma
[45] = tested on: SK-MEL-28 melanoma
[46] = tested on: SK-MEL-5 melanoma
[47] = tested on: SK-OV-3 ovarian
[48] = tested on: SN12C renal
[49] = tested on: SNB-19 CNS
[50] = tested on: SNB-75 CNS
[51] = tested on: SR leukemia
[52] = tested on: SW-620 colon
[53] = tested on: T-47D breast
[54] = tested on: TK-10 renal
[55] = tested on: U251 CNS
[56] = tested on: UACC-257 melanoma
[57] = tested on: UACC-62 melanoma
[58] = tested on: UO-31 renal

COc1ccc([C@H]2[C@H](O)C(=O)N2c2cc(OC)c(OC)c(OC)c2)cc1F
> 34500 nM: TGI [39]
< 10 nM: TGI [8] | TGI [18] | TGI [27] | TGI [32] | TGI [43]
> 100000 nM: TGI [1] | TGI [2] | TGI [3] | TGI [4] | TGI [6] | TGI [7] | TGI [9] | TGI [10] | TGI [12] | TGI [13] | TGI [15] | TGI [16] | TGI [17] | TGI [19] | TGI [20] | TGI [21] | TGI [22] | TGI [23] | TGI [24] | TGI [25] | TGI [26] | TGI [28] | TGI [30] | TGI [34] | TGI [35] | TGI [36] | TGI [38] | TGI [41] | TGI [42] | TGI [45] | TGI [47] | TGI [48] | TGI [49] | TGI [51] | TGI [52] | TGI [53] | TGI [54] | TGI [55] | TGI [56] | TGI [57] | TGI [58]
12 nM: TGI [46]
active: GI50 [1] < 10 nM | GI50 [3] < 10 nM | GI50 [4] < 10 nM | GI50 [5] < 10 nM | GI50 [6] < 10 nM | GI50 [7] < 10 nM | GI50 [8] < 10 nM | GI50 [9] < 10 nM | GI50 [11] < 10 nM | GI50 [12] < 10 nM | GI50 [13] < 10 nM | GI50 [14] < 10 nM | GI50 [15] < 10 nM | GI50 [17] < 10 nM | GI50 [18] < 10 nM | GI50 [19] < 10 nM | GI50 [20] < 10 nM | GI50 [21] < 10 nM | GI50 [22] < 10 nM | GI50 [23] < 10 nM | GI50 [24] < 10 nM | GI50 [25] < 10 nM | GI50 [26] < 10 nM | GI50 [27] < 10 nM | GI50 [28] < 10 nM | GI50 [29] < 10 nM | GI50 [30] < 10 nM | GI50 [31] < 10 nM | GI50 [32] < 10 nM | GI50 [33] < 10 nM | GI50 [34] < 10 nM | GI50 [36] < 10 nM | GI50 [37] < 10 nM | GI50 [38] < 10 nM | GI50 [39] < 10 nM | GI50 [40] < 10 nM | GI50 [41] < 10 nM | GI50 [42] < 10 nM | GI50 [43] < 10 nM | GI50 [44] < 10 nM | GI50 [45] < 10 nM | GI50 [46] < 10 nM | GI50 [47] < 10 nM | GI50 [48] < 10 nM | GI50 [49] < 10 nM | GI50 [50] < 10 nM | GI50 [51] < 10 nM | GI50 [52] < 10 nM | GI50 [55] < 10 nM | GI50 [57] < 10 nM | GI50 [58] < 10 nM
> 94800 nM: TGI [44]
> 39100 nM: TGI [31]
inactive: GI50 [2] > 100000 nM | GI50 [35] 546 nM | GI50 [53] > 100000 nM | GI50 [54] > 100000 nM

— PubChem BioAssay (NCI)
